Assay results as given in PubChem BioAssay (NCI).
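Growth conditions: 96-well plates. Treatment: test compound, 48 hours, 5 concentrations. Analysis: linear interpolation between bracketing concentrations; unreached endpoints set to highest concentration. TGI is the concentration that stops growth completely.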

Columns and labels:
Experiment in all cases: NCI anticancer screen, dose series, 48 h
[1] = test system: CAKI-1 renal
[2] = test system: CCRF-CEM leukemia
[3] = test system: COLO 205 colon
[4] = test system: HS 578T breast
[5] = test system: MALME-3M melanoma
[6] = test system: NCI-H522 lung
[7] = test system: NCI/ADR-RES ovarian
[8] = test system: PC-3 prostate
[9] = test system: SN12C renal
[10] = test system: SNB-75 CNS
[11] = test system: SR leukemia

COC1OC(CO)C(O)C(OC(=O)c2cc(O)c(O)c(O)c2)C1OC(=O)c1cc(O)c(O)c(O)c1 (stereo not drawn)
TGI [1]: > 100 µM
TGI [2]: > 100 µM
TGI [3]: > 100 µM
TGI [4]: > 100 µM
TGI [5]: > 100 µM
TGI [6]: > 100 µM
TGI [7]: > 100 µM
TGI [8]: > 100 µM
TGI [9]: > 100 µM
TGI [10]: > 100 µM
TGI [11]: > 100 µM

NC1=NC(OCC2(CO)CCC2)C=C(NCC2(CO)CCC2)N1 (stereo not drawn)
TGI [1]: > 100 µM
TGI [2]: > 100 µM
TGI [3]: > 100 µM
TGI [4]: > 100 µM
TGI [5]: > 100 µM
TGI [6]: > 100 µM
TGI [7]: > 100 µM
TGI [8]: > 100 µM
TGI [9]: > 100 µM
TGI [10]: > 100 µM
TGI [11]: > 100 µM

CC1(C)OCC(C2OC(N3O[C@H](CI)C[C@@H]3c3ccccc3)C3OC(C)(C)OC23)O1 (stereo partly drawn)
TGI [1]: > 100 µM
TGI [2]: > 100 µM
TGI [3]: > 100 µM
TGI [4]: > 100 µM
TGI [5]: > 100 µM
TGI [6]: > 100 µM
TGI [7]: > 100 µM
TGI [8]: > 100 µM
TGI [9]: > 100 µM
TGI [10]: > 100 µM
TGI [11]: > 100 µM

CN(C)CCO/N=C1/C=C2CC[C@H]3[C@@H]4CC[C@H](O)[C@@]4(C)CC[C@@H]3[C@@]2(C)CC1
TGI [1]: > 66.8 µM
TGI [2]: > 21.6 µM
TGI [3]: 34.9 µM
TGI [4]: 54.1 µM
TGI [6]: 13.7 µM
TGI [7]: 17.1 µM
TGI [8]: > 100 µM
TGI [9]: 32.8 µM
TGI [10]: 10.4 µM
TGI [11]: 19.6 µM

O=C1/C(=C\c2cccc(Oc3ccccc3)c2)SC(c2ccccc2)N1c1ccc(Cl)cc1 (stereo not drawn)
TGI [1]: > 100 µM
TGI [2]: > 63.6 µM
TGI [3]: > 80.9 µM
TGI [4]: > 100 µM
TGI [5]: > 100 µM
TGI [6]: 96.9 µM
TGI [7]: > 100 µM
TGI [8]: > 100 µM
TGI [9]: > 100 µM
TGI [10]: > 100 µM
TGI [11]: > 55.9 µM

COc1cc(-c2coc3c(OC)c(OC4OC(CO)C(O)C(O)C4O)c(OC)cc3c2=O)cc(OC)c1C (stereo not drawn)
TGI [1]: 31 µM
TGI [2]: > 41.7 µM
TGI [3]: > 54.2 µM
TGI [4]: 15.4 µM
TGI [5]: 29.7 µM
TGI [6]: 11.1 µM
TGI [7]: 27.4 µM
TGI [8]: > 54.3 µM
TGI [9]: 51.8 µM
TGI [10]: 21.6 µM
TGI [11]: > 100 µM

CC(=O)CCC[C@@H](C)[C@@H]1O[C@H]([C@@]2(C)CCC(=O)O2)C[C@H]2C(CSc3ccccc3)C(=O)O[C@@H]12 (stereo partly drawn)
TGI [1]: 27.2 µM
TGI [2]: 24.9 µM
TGI [3]: 31.4 µM
TGI [4]: > 41.6 µM
TGI [5]: > 42.5 µM
TGI [6]: 15.2 µM
TGI [7]: 43.7 µM
TGI [8]: 47.6 µM
TGI [9]: 34.2 µM
TGI [10]: > 59.4 µM
TGI [11]: > 100 µM

CC(=O)O[C@H]1C(=O)[C@@]2(C)[C@H]([C@H](OC(=O)C3CCCCC3)[C@]3(O)C[C@H](OC(=O)[C@H](O)[C@@H](NC(=O)C4CCCCC4)C4CCCCC4)C(C)=C1C3(C)C)[C@]1(OC(C)=O)CO[C@@H]1C[C@@H]2O
TGI [1]: 8.02 µM
TGI [2]: 8.78 µM
TGI [3]: 0.0266 µM
TGI [4]: 0.0531 µM
TGI [5]: 4.96 µM
TGI [6]: 0.136 µM
TGI [7]: 5.68 µM
TGI [8]: 1.96 µM
TGI [9]: 14.8 µM
TGI [10]: 1.12 µM
TGI [11]: 9.67 µM

Cc1sc2nc3n(c(=O)c2c1C)N=C(c1ccc(Cl)cc1)CS3
TGI [1]: > 100 µM
TGI [2]: > 100 µM
TGI [3]: > 100 µM
TGI [4]: > 100 µM
TGI [5]: > 100 µM
TGI [6]: > 100 µM
TGI [7]: > 100 µM
TGI [8]: > 100 µM
TGI [9]: > 100 µM
TGI [10]: > 100 µM
TGI [11]: > 100 µM
